Data on nine compounds can be found in US9695154B2, “Heteroaryl inhibitors of sumo activating enzyme” (MILLENNIUM PHARMACEUTICALS, INC., priority 2013, dated 2017).

Some results are limits rather than exact numbers.

The experiment deals with T1, recombinant human SAE enzyme (Homo sapiens, UniProt Q9UBT2).
T1 sequence (Q9UBT2 1-640): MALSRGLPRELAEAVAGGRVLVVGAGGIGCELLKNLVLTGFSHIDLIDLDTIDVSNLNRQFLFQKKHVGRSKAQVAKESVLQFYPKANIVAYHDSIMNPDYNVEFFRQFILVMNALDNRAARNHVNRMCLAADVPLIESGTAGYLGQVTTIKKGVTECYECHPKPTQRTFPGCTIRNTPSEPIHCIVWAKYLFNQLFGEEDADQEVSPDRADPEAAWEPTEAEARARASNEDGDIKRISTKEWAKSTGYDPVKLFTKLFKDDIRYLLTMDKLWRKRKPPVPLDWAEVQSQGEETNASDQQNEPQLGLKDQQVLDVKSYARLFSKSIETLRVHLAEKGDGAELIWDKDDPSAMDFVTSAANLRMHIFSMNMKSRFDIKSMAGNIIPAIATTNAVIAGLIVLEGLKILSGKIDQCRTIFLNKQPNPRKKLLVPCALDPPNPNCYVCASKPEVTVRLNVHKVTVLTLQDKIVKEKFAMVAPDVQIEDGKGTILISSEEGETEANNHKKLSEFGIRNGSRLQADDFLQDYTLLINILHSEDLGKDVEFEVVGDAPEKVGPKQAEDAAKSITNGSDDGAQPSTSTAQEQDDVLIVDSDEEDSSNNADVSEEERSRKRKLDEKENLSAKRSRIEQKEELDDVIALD
T1 sequence (Q9UBE0 1-346 partner): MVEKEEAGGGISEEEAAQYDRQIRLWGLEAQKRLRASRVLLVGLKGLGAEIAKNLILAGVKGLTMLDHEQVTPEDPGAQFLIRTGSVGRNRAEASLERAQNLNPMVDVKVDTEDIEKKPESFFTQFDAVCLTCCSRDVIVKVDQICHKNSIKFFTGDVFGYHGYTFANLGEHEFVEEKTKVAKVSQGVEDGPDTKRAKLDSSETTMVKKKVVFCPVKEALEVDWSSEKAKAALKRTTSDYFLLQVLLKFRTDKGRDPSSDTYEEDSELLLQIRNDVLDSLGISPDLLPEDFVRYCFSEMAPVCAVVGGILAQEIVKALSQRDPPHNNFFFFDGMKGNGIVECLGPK
Description: SAE HTRF Enzyme Assay. Format: biochemical. Particulars: for IC50: class symbols A-C; for inhibition at 0.111 µM: compound concentration 0.111 μM, read-out: Percent Inhibition. In short, it runs like this:
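SAE 0.11 nM; ATP 0.5 μM; Sumo-Flag 0.125 μM; Ubc9-GST 0.01 μM; 250 μM GSH, 5 mM MgCl2, pH 7.5. 105 min, 24° C. EDTA/KF stop plus Eu/APC antibodies, 2 h, TR-FRET. % inhibition or IC50.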

Turning to `Cc1ccnc(Cn2ccc(C(=O)c3cncnc3N[C@@H]3C[C@H](COS(N)(=O)=O)[C@@H](O)C3)n2)c1` [Compound I-162, [(1R,2S,4R)-2-hydroxy-4-{[5-({1-[(4-methylpyridin-2-yl)methyl]-1H-pyrazol-3-yl}carbonyl)pyrimidin-4-yl]amino}cyclopentyl]methyl sulfamate], the IC50 is below 0.01 µM and the inhibition at 0.111 µM turned out to be 99%.

Consider `NS(=O)(=O)OC[C@H]1C[C@@H](Nc2ncncc2C(=O)c2ccn(Cc3ccc(C(F)(F)F)o3)n2)C[C@@H]1O` [Compound I-163, [(1R,2S,4R)-2-hydroxy-4-({5-[(1-{[5-(trifluoromethyl)-2-furyl]methyl}-1H-pyrazol-3-yl)carbonyl]pyrimidin-4-yl}amino)cyclopentyl]methyl sulfamate], for which the IC50 is below 0.01 µM and the inhibition at 0.111 µM is 98%.

Turning to `C#Cc1cccc(Cn2nc(C(=O)c3cncnc3N[C@@H]3C[C@H](COS(N)(=O)=O)[C@@H](O)C3)cc2C)c1` [Compound I-164, {(1R,2S,4R)-4-[(5-{[1-(3-ethynylbenzyl)-5-methyl-1H-pyrazol-3-yl]carbonyl}pyrimidin-4-yl)amino]-2-hydroxycyclopentyl}methyl sulfamate], the IC50 was below 0.01 µM and the inhibition at 0.111 µM is above 99%.

As to `NS(=O)(=O)OC[C@H]1C[C@@H](Nc2ncncc2C(=O)c2ccn(Cc3cccc(F)c3)n2)C[C@@H]1O` [Compound I-165, {(1R,2S,4R)-4-[(5-{[1-(3-fluorobenzyl)-1H-pyrazol-3-yl]carbony1}pyrimidin-4-yl)amino]-2-hydroxycyclopentyl}methyl sulfamate], the IC50 was below 0.01 µM and the inhibition at 0.111 µM is 98%.

Take `C#Cc1cc(Cn2ccc(C(=O)c3cncnc3N[C@@H]3C[C@H](COS(N)(=O)=O)[C@@H](O)C3)n2)ccc1F` [Compound I-166, {(1R,2S,4R)-4-[(5-{[1-(3-ethynyl-4-fluorobenzyl)-1H-pyrazol-3-yl]carbonyl}pyrimidin-4-yl)amino]-2-hydroxycyclopentyl}methyl sulfamate]: the IC50 is below 0.01 µM and the inhibition at 0.111 µM turned out to be 98%.

Take `NS(=O)(=O)OC[C@H]1C[C@@H](Nc2ncncc2C(=O)c2ccn(Cc3ccc(C(F)(F)F)cc3)n2)[C@H](O)[C@@H]1O` [Compound I-167, [(1R,2R,3S,4R)-2,3-dihydroxy-4-{[5-({1-[4-(trifluoromethyl)benzyl]-1H-pyrazol-3-yl}carbonyl)pyrimidin-4-yl]amino}cyclopentyl]methyl sulfamate]: the IC50 was below 0.01 µM and the inhibition at 0.111 µM is 98%.

As for `NS(=O)(=O)OC[C@H]1C[C@@H](Nc2ncncc2C(=O)c2ccn(Cc3cc(C(F)(F)F)cc(C(F)(F)F)c3)c2)C[C@@H]1O` [Compound I-168, [(1R,2S,4R)-4-{[5-({1-[3,5-Bis(trifluoromethyl)benzyl]-1H-pyrrol-3-yl}carbonyl)pyrimidin-4-yl]amino}-2-hydroxycyclopentyl]methylsulfamate], the IC50 is below 0.01 µM and the inhibition at 0.111 µM came to 94%.

For the compound `Cc1cc(Cn2ccc(C(=O)c3cncnc3N[C@@H]3C[C@H](COS(N)(=O)=O)[C@@H](O)[C@H]3O)n2)no1` [Compound I-169, [(1R,2R,3S,4R)-2,3-dihydroxy-4-{[5-({1-[(5-methylisoxazol-3-yl)methyl]-1H-pyrazol-3-yl}carbonyl)pyrimidin-4-yl]amino}cyclopentyl]methyl sulfamate], the IC50 is below 0.01 µM and the inhibition at 0.111 µM was 97%.

Consider `NS(=O)(=O)OC[C@H]1C[C@@H](Nc2ncncc2C(=O)c2cc(C(F)(F)F)n(Cc3cccc(Cl)c3)n2)C[C@@H]1O` [Compound I-170, {(1R,2S,4R)-4-[(5-{[1-(3-Chlorobenzyl)-5-(trifluoromethyl)-1H-pyrazol-3-yl]carbonyl}pyrimidin-4-yl)amino]-2-hydroxycyclopentyl}methyl sulfamate], for which the IC50 is below 0.01 µM and the inhibition at 0.111 µM worked out at 97%.
